According to patent publication US6319929A, “Suksdorfin analogs, compositions thereof, and methods for making and using thereof” (priority 1998, dated 2001):
Entries after “also recorded” stand apart in the source; their conditions may differ. Like-named read-outs stand apart in the source and are kept apart here.

Key:
[1] = tested on: HIV-1 replication in fresh elutriated monocytes; experiment: HIV-1 infection of primary elutriated monocytes (p24 antigen); assay type: cell-based
Text: In order to determine if compound 16 suppressive activity was limited to only fresh T cells infected with HIV-1, elutriated monocytes were infected with HIV-1 and then cultured with various concentrations of compound 16 or AZT. […] This illustrates that the effect of the drμg is not only limited to T cells but also can effect virally infected monocytes.

uninfected H9 cells = experiment: Combination study of suksdorfin with AZT, ddI and ddC: toxicity to uninfected H9 cells; assay type: cell-based; conditions: for IC50: Homo sapiens
Procedure: Pharm. Asso. […] Aliquots ( ml) were placed in wells of 24-well culture plates containing an equal volume of test compound (diluted in the appropriate culture medium). After incubation for 4 days at 37° C., cell density of uninfected cultures was determined by counting cells in a Coulter counter to assess toxicity of the test compound. A p24 antigen ELISA assay was used to determine the level of virus released in the medium of the HIV-infected cultures. The p24 antigen assay uses a HIV-1 anti-p24 specific monoclonal antibody as the capture antibody coated-on 96-well plates. Following a sample incubation period, rabbit serum containing antibodies for HIV-1 p24 is used to tag any p24 "captured" onto the microtiter well surface. […] The cut-off for the p24 ELISA assay is 12. pg/ml. P24 in the culture medium was quantitated against a standard curve containing known amounts of p24. The effective (EC50) and inhibitory (IC50) concentrations (for anti-HIV activity and cytotoxicity, respectively) were determined graphically.
(§1) Combination Study: The experimental design is identical to the growth inhibition assay except that various concentrations of AZT, ddI or ddC were also added to cultures of acutely HIV-1 infected H9 cells that either have or have no received different concentrations of suksdorfin.

[2] = tested on: HIV-1 replication in H9 cells; experiment: Combination study of suksdorfin with AZT, ddI and ddC: HIV-1 replication in acutely infected H9 cells; assay type: cell-based, HIV-1 (IIIB)
Procedure: HIV Growth Inhibition Assay: The T cell line, H9, and the promonocytic cell line, U937, were maintained separately in continuous culture with complete medium (RPMI 1640 and […] fetal calf serum (FCS) at 5% CO2 and 37° C. Cell lines were used in experiments only when in log phase of growth; whereas, uninfected peripheral blood mononuclear cells (PBMCs) were first stimulated with PHA (1 μg/ml) for 3 days. All cell targets were incubated with HIV-1 (IIIB isolate, TCID50 10 ^4 IU/mi, at a multiplicity of infection of 0.1-0.01 IU/cell) for 1 hour at 37° C. and 5% CO2. The cell lines and PBMCs were washed thoroughly to remove unabsorbed virions and resuspended at 4×10^5 cells/ml in complete medium or complete medium with 10% v/v interleukin […] IL-2, respectively. Aliquots ( ml) were placed in wells of 24-well culture plates containing an equal volume of test compound (diluted in the appropriate culture medium). After incubation for 4 days at 37° C., cell density of uninfected cultures was determined by counting cells in a Coulter counter to assess toxicity of the test compound. A p24 antigen ELISA assay was used to determine the level of virus released in the medium of the HIV-infected cultures. The p24 antigen assay uses a HIV-1 anti-p24 specific monoclonal antibody as the capture antibody coated-on 96-well plates. Following a sample incubation period, rabbit serum containing antibodies for HIV-1 p24 is used to tag any p24 "captured" onto the microtiter well surface. […] The cut-off for the p24 ELISA assay is 12. pg/ml. P24 in the culture medium was quantitated against a standard curve containing known amounts of p24. […] Both the EC50 and IC50 values were calculated by plotting drug concentration versus percent inhibition, and then identifying a 50% inhibition value from the graph.
as §1, with “suksdorfin. The concentrations of AZT, ddI and ddC were 5 ten-fold dilutions starting at 1 μg/ml. [drawing 104] [drawing 105]” for “suksdorfin.”

[3] = tested on: HIV-2 replication in HUT-78 cells; experiment: Suppression of virus replication during HIV-2 infection of HUT-78 cells (reverse transcriptase assay); assay type: cell-based
Text: During this experiment, HIV-2 was used. The basic assay system is identical to that used for HIV-1 except that a different virus stock was used and rather than a p24 antigen ELISA determination a reverse transcriptase assay was used to detect the presence of the virus.

Cc1cn([C@H]2C[C@H](N=[N+]=[N-])[C@@H](CO)O2)c(=O)[nH]c1=O [AZT, azidothymidine, reference compound]
p24 antigen ([1]; Day 17, 0.0001 μg/ml): 83 pg/mL
p24 antigen ([1]; Day 17, 0.001 μg/ml): 100 pg/mL
p24 antigen ([1]; Day 17, 0.01 μg/ml): 7 pg/mL
p24 antigen ([1]; Day 17, 0.1 μg/ml): 5 pg/mL
p24 antigen ([1]; Day 17, 1 μg/ml): 2 pg/mL
p24 antigen ([1]; Day 17, 10 μg/ml): 0.1 pg/mL
p24 antigen ([1]; Day 28, 0.0001 μg/ml): 0 pg/mL
p24 antigen ([1]; Day 28, 0.001 μg/ml): 0 pg/mL
p24 antigen ([1]; Day 28, 0.01 μg/ml): 0 pg/mL
p24 antigen ([1]; Day 28, 0.1 μg/ml): 0 pg/mL
p24 antigen ([1]; Day 28, 1 μg/ml): 0 pg/mL
p24 antigen ([1]; Day 28, 10 μg/ml): 0 pg/mL
IC50 (uninfected H9 cells; H9): > 1 µg/mL
IC50 (uninfected H9 cells; H9, read-out: IC50 (μM)^a): > 1 µg/mL
EC50 ([2]; Human immunodeficiency virus 1, H9): 0.04 µg/mL
IC50 ([2]; Human immunodeficiency virus 1, H9, read-out: IC50 (μM)^b): 0.04 µg/mL
Therapeutic Index ([2]; Table 5, combinations with 4 μg/ml suksdorfin): > 25
Therapeutic Index ([2]; Table 16, combinations with 4 μg/ml suksdorfin): > 25
decrease of EC50 in presence of suksdorfin ([2]; with 4 μg/ml suksdorfin, H9): 400 fold
increase of TI value in presence of suksdorfin ([2]; with 4 μg/ml suksdorfin, H9): 400 fold

CC1(C)Oc2ccc3ccc(=O)oc3c2[C@@H](OC(=O)[C@@]23CC[C@@](C)(C(=O)O2)C3(C)C)[C@H]1OC(=O)[C@@]12CC[C@@](C)(C(=O)O1)C2(C)C [Compound 16, 3',4'-Di-O-(-)-Camphanoyl-(+)-cis-Khellactone]
suppression of HIV-1 replication in fresh elutriated monocytes (in words) [1]: able to suppress HIV-1 replication in fresh elutriated monocytes
p24 antigen ([1]; Day 17, 0.0000102 μg/ml): 49 pg/mL
p24 antigen ([1]; Day 17, 0.0000512 μg/ml): 52 pg/mL
p24 antigen ([1]; Day 17, 0.000256 μg/ml): 70 pg/mL
p24 antigen ([1]; Day 17, 0.00128 μg/ml): 306 pg/mL
p24 antigen ([1]; Day 17, 0.0064 μg/ml): 66 pg/mL
p24 antigen ([1]; Day 17, 0.032 μg/ml): 94 pg/mL
p24 antigen ([1]; Day 17, 0.16 μg/ml): 7 pg/mL
p24 antigen ([1]; Day 17, 0.8 μg/ml): 6 pg/mL
p24 antigen ([1]; Day 17, 4 μg/ml): 6 pg/mL
p24 antigen ([1]; Day 17, 20 μg/ml): 5 pg/mL
p24 antigen ([1]; Day 28, 0.0000102 μg/ml): 1536 pg/mL
p24 antigen ([1]; Day 28, 0.0000512 μg/ml): 824 pg/mL
p24 antigen ([1]; Day 28, 0.000256 μg/ml): 760 pg/mL
p24 antigen ([1]; Day 28, 0.00128 μg/ml): 208 pg/mL
p24 antigen ([1]; Day 28, 0.0064 μg/ml): 584 pg/mL
p24 antigen ([1]; Day 28, 0.032 μg/ml): 0 pg/mL
p24 antigen ([1]; Day 28, 0.16 μg/ml): 0 pg/mL
p24 antigen ([1]; Day 28, 0.8 μg/ml): 0 pg/mL
p24 antigen ([1]; Day 28, 4 μg/ml): 0 pg/mL
p24 antigen ([1]; Day 28, 20 μg/ml): 0 pg/mL
effect on HIV-2 replication (in words) [3]: no effect on the virus replication of HIV-2

CC(=O)O[C@@H]1[C@H](OC(=O)CC(C)C)c2c(ccc3ccc(=O)oc23)OC1(C)C [Suksdorfin, suksdorfin]
toxicity to H9 cells (uninfected H9 cells; 20 μg/ml): toxic to H9 cells
synergy with AZT, ddI and ddC ([2]; H9): act synergistically with AZT, ddI and ddC
synergy with AZT, ddI and ddC ([2]; H9, listed as 1): potentiate the anti-HIV effects of three nucleosides; also recorded: synergistic effect against HIV replication
EC50 ([2]; Human immunodeficiency virus 1, H9, Table 5, combinations with 4 μg/ml suksdorfin, read-out: EC50): 2.8 µg/mL
IC50 ([2]; Human immunodeficiency virus 1, H9, Table 16, concentration which inhibits viral replication by 50%, combinations with 4 μg/ml suksdorfin, read-out: IC50 (μM)^b): 2.8 µg/mL
EC50 ([2]; Human immunodeficiency virus 1, H9, later value, read-out: EC50 (value after increase)): 1.5 to 2.8 µg/mL
inhibition at 4 µg/mL ([2]; Human immunodeficiency virus 1, 4 μg/ml suksdorfin, H9): 64%
